# Source: patent US20100215759A1 (priority 2009, published 2010)
# What was measured:
# old DBA/2J mice = test: Reduction of intraocular pressure (IOP) after application to the eye, TONOLab tonometer; assay type: in vivo; conditions: for Intraocular Pressure Decrease: versus basal IOP
# From the text: The main risk factor in the glaucoma is represented by the high intraocular pressure (IOP). See for instance: Libby R. T. et al., Vis Neurosci. 2005 Sep.-Oct., 22(5):637-48 and Tomida I. et al., Br. J. Opthalmol. 2004 May, 88(5):708-13.
# By using the animal model of old DBA/2J mice (see above) it has been evaluated the efficacy of the compound obtained in example 3.1 in reducing the IOP. As said, this compound has a good affinity towards the CB1 receptors in vitro (example 4) and a CB1 agonist action in vivo (example 5). The intraocular pressure has been determined by a TONOLab Tonometer (Tiolat Oy), as reported by M. E. Pease et al. in J. Glaucoma, 2006 December, 15(6):512-519. The compound was dispersed in the commercial emulsion Tocrisolve™, (Tocris), at a concentration of […] and applied to the eye of old DBA/2J mice (8-10 month age; basal IOP comprised between 19.0 and 22.5 mmHg). The applied emulsion volumes were such that the compound doses resulted, respectively, of 100 μg or 50 μg. WIN 55212-2 was dispersed in Tocrisolve™at the concentration of 5 mg/ml and was the reference cannabinoidergic compound. The determination of the ocular pressure was carried out every 30 minutes up to two hours starting from the administration. The obtained results (average of 6 measurements at each time for experimental groups of 8-10 animals for group/dose) are reported in Table 3. IOP decrease was expressed in percent with respect to the basal value.
# [1] = system: mouse deferent vessel (vas deferens); test: Ex-vivo model: electrically induced contractions of the isolated deferent vessel (vas deferens); parameters: species or system albino CD1 mice; conditions: for Effect on the curve % of inhibition of the contractions/logarithm of the WIN 55212-2 concentration: concentrations lower than or equal to 1×10^−5 M; for Inhibition of the contractions induced by the electric stimulus: concentrations lower than or equal to 1×10^−6 M
# From the text: The use of the isolated deferent vessel organ, as a highly sensitive basic system in an ex-vivo model for evaluating the activity of agonist CB1 compounds, has been described by Pertwee et al. in Br. J. Pharmacol., 105:980-4, 1992. This model has been used also to evaluate the properties of antagonist CB1 compounds and to distinguish antagonist CB1 derivatives from inverse agonist CB1 compounds (Rinaldi-Carmona et al., FEBS Lett., 350:240-4, 1994; Pertwee et al., Eur. J. Pharmacol., 456:99-106, 2002). […] This effect is correlated to the action on the prejunctional neuronal CB1 receptors with the consequent release inhibition, induced by electric stimuli, of contractile neurotransmitters (noradrenaline and ATP) (Schlicker and Kathmann, Trends Pharmacol. Sci., 22:565-72, 2001). The inhibition of the contractions induced by the electric stimulus on the deferent vessel in the presence of agonist (or partial agonist) CB1 compounds are expressed as % of contraction inhibition. Said % contraction inhibition is calculated by the ratio between the contraction amplitude determined in the presence of a given concentration of the compound and that detected in its absence (basal value). The curve of the “% of contraction inhibition” as a function of the logarithm of the concentration of agonist (or partial agonist) CB1 compounds, is sigmoidal. The use of the model for the evaluation of antagonist CB1 compounds is based on the evaluation of their efficacy in inhibiting the action of the deferent vessel of agonist (or partial agonist) CB1 compounds. The inhibition is expressed by a shifting towards the right of the curves % of inhibition of contractions/logarithm of the concentration of the agonist CB1 compound, with increasing the concentration of the antagonist CB1 compound.
# As reported in the literature, the experimentation has been carried out by using albino CD1 mice weighing 30-40 grams. The mice deferent vessel was recovered and transferred into an instrument for separated organs supplied by the Firm Ugo Basile (Comerio, Italy). The initial tension was of 0.5 g. The procedure adopted is reported in Pertwee et al. in Br. J. Pharmacol., 110:1483-1490, 1993. In particular the procedure and instruments as described by S. Ruiu et al. in J.P.E.T., Vol. 306, 2003, 363-370, have been used.
# In a subsequent experiment it was shown that the compound activity was antagonized by the antagonist CB1 compound N-piperidinyl-[8-chloro-1-(2,4-dichlorophenyl)-1,4,5,6-tetrahydrobenzo[6,7]cyclohepta[1,2-c]pyrazol-3-carboxamide], described by S. Ruiu et al. in J.P.E.T., Vol. 306, 2003, 363-370. The experiment was carried out by adding the antagonist (concentration in bath 1 nM) 20 minutes before the first addition of the compound of the invention.
# [2] = 50 μg to the eye in Tocrisolve, 30 minutes
# [3] = 50 μg to the eye in Tocrisolve, 60 minutes
# [4] = 50 μg to the eye in Tocrisolve, 90 minutes
# [5] = 50 μg to the eye in Tocrisolve, 120 minutes
# [6] = 100 μg to the eye in Tocrisolve, 30 minutes
# [7] = 100 μg to the eye in Tocrisolve, 60 minutes
# [8] = 100 μg to the eye in Tocrisolve, 90 minutes
# [9] = 100 μg to the eye in Tocrisolve, 120 minutes
Structure (SMILES),Intraocular Pressure Decrease (old DBA/2J mice; [2]) [%],Intraocular Pressure Decrease (old DBA/2J mice; [3]) [%],Intraocular Pressure Decrease (old DBA/2J mice; [4]) [%],Intraocular Pressure Decrease (old DBA/2J mice; [5]) [%],Intraocular Pressure Decrease (old DBA/2J mice; [6]) [%],Intraocular Pressure Decrease (old DBA/2J mice; [7]) [%],Intraocular Pressure Decrease (old DBA/2J mice; [8]) [%],Intraocular Pressure Decrease (old DBA/2J mice; [9]) [%],Reduction of intraocular pressure (old DBA/2J mice; dose 50 μg),Reduction of intraocular pressure (old DBA/2J mice; dose 100 μg),Effect on the curve % of inhibition of the contractions/logarithm of the WIN 55212-2 concentration [1],Inhibition of the contractions induced by the electric stimulus [1],"Antagonism of the compound activity by a CB1 antagonist ([1]; antagonist N-piperidinyl-[8-chloro-1-(2,4-dichlorophenyl)-1,4,5,6-tetrahydrobenzo[6,7]cyclohepta[1,2-c]pyrazol-3-carboxamide] 1 nM in bath, added 20 minutes before)",Functional character at CB1 ([1]; vas deferens model)
"CCOC(=O)c1nn(-c2ccc(S(N)(=O)=O)cc2)c2c1CCc1sccc1-2 [Compound (XA), 1-(4′-sulphonamidophenyl)-4,5-dihydro-1H-thieno[2,3-g]indazol-3-ethyl carboxylate]",−0.3,−0.2,0.0,−0.1,0.0,−0.2,−0.1,0.1,not able to significantly reduce the intraocular pressure,not able to significantly reduce the intraocular pressure,did not significantly modify the slope of the curve,did not significantly inhibit the contractions,–,–
"NC(=O)c1nn(-c2ccc(S(N)(=O)=O)cc2)c2c1CCc1sccc1-2 [Compound (XB), 1-(4′-sulphonamidophenyl)-4,5-dihydro-1H-thieno[2,3-g]indazol-3-carboxamide]",−0.2,−0.1,0.0,−0.1,−0.1,0.4,−0.3,0.0,not able to significantly reduce the intraocular pressure,not able to significantly reduce the intraocular pressure,did not significantly modify the slope of the curve,did not significantly inhibit the contractions,–,–
"Cc1ccc(Cn2nc(C(=O)NCC3CCC4CC3C4(C)C)c3c2-c2sc(C)cc2C3)cc1 (stereo not drawn) [Example 3.1, N-myrtanyl-6-methyl-1-(4′-methylbenzyl)-1,4-dihydrothieno[3′,2′:4,5]cyclopenta[1,2-c]pyrazol-3-carboxamide]",15.9,15.0,12.6,11.7,23.9,22.8,19.6,21.7,more effective in reducing IOP than the reference compound,as effective to reduce eye pressure as the reference compound WIN 55212-2,–,–,antagonized,CB1 agonist
